ChEMBL document CHEMBL1140050, “Designed glycopeptides with different beta-turn types as synthetic probes for the detection of autoantibodies as biomarkers of multiple sclerosis” (J Med Chem, 2008)
Residues, ends and D or L forms follow the SMILES beside them. *: point of attachment. NH(β-D-Glc) = OC[C@H]1O[C@@H](N*)[C@H](O)[C@@H](O)[C@@H]1O

test: Binding affinity to anti-CSF114 (Glc) antibody in serum from multiple sclerosis patient by ELISA

| IC50 | SMILES |
| --- | --- |
| 14.9 nM | CC(=O)N[C@@H](CCC(=O)O)C(=O)N[C@@H](CCCNC(=N)N)C(=O)N1CCC[C@H]1C(=O)N[C@@H](CC(=O)N[C@@H]1O[C@H](CO)[C@@H](O)[C@H](O)[C@H]1O)C(=O)N[C@@H](Cc1cnc[nH]1)C(=O)N[C@H](C(=O)N[C@H](C(N)=O)C(C)C)[C@@H](C)O (Ac-ERPD(NH(β-D-Glc))HTV-NH2) |
| 30.3 nM | CSCC[C@H](NC(=O)[C@H](Cc1c[nH]c2ccccc12)NC(=O)CNC(=O)[C@H](Cc1ccc(O)cc1)NC(=O)[C@@H]1CCCN1C(=O)[C@H](C)NC(=O)[C@H](CC(C)C)NC(=O)[C@H](Cc1ccccc1)NC(=O)[C@@H](NC(=O)[C@@H](NC(=O)[C@H](Cc1cnc[nH]1)NC(=O)[C@H](CC(=O)N[C@@H]1O[C@H](CO)[C@@H](O)[C@H](O)[C@H]1O)NC(=O)CNC(=O)[C@H](CCCNC(=N)N)NC(=O)[C@H](CCC(=O)O)NC(=O)[C@@H](NC(=O)[C@H](CCCNC(=N)N)NC(=O)[C@@H]1CCCN1C(=O)[C@@H](N)[C@@H](C)O)C(C)C)[C@@H](C)O)C(C)C)C(=O)N[C@H](C(=O)N[C@@H](CCCCN)C(=O)O)C(C)C (H-TPRVERGD(NH(β-D-Glc))HTVFLAPYGWMVK-OH) |
| 11.8 nM | CSCC[C@H](NC(=O)[C@H](Cc1c[nH]c2ccccc12)NC(=O)CNC(=O)[C@H](Cc1ccc(O)cc1)NC(=O)[C@@H]1CCCN1C(=O)[C@H](C)NC(=O)[C@H](CC(C)C)NC(=O)[C@H](Cc1ccccc1)NC(=O)[C@@H](NC(=O)[C@@H](NC(=O)[C@H](Cc1cnc[nH]1)NC(=O)[C@H](CC(=O)N[C@@H]1O[C@H](CO)[C@@H](O)[C@H](O)[C@H]1O)NC(=O)[C@@H]1CCCN1C(=O)[C@H](CCCNC(=N)N)NC(=O)[C@H](CCC(=O)O)NC(=O)[C@@H](NC(=O)[C@H](CCCNC(=N)N)NC(=O)[C@@H]1CCCN1C(=O)[C@@H](N)[C@@H](C)O)C(C)C)[C@@H](C)O)C(C)C)C(=O)N[C@H](C(=O)N[C@@H](CCCCN)C(=O)O)C(C)C (H-TPRVERPD(NH(β-D-Glc))HTVFLAPYGWMVK-OH) |

| SMILES | IC50 |
| --- | --- |
| CSCC[C@H](NC(=O)[C@H](Cc1c[nH]c2ccccc12)NC(=O)CNC(=O)[C@H](Cc1ccc(O)cc1)NC(=O)[C@@H]1CCCN1C(=O)[C@H](C)NC(=O)[C@H](CC(C)C)NC(=O)[C@H](Cc1ccccc1)NC(=O)[C@@H](NC(=O)[C@H](CO)NC(=O)[C@H](Cc1cnc[nH]1)NC(=O)CNC(=O)[C@H](CC(=O)N[C@@H]1O[C@H](CO)[C@@H](O)[C@H](O)[C@H]1O)NC(=O)[C@H](CCCNC(=N)N)NC(=O)[C@H](CCC(=O)O)NC(=O)[C@@H](NC(=O)[C@H](CCCNC(=N)N)NC(=O)[C@@H]1CCCN1C(=O)[C@@H](N)[C@@H](C)O)C(C)C)C(C)C)C(=O)N[C@H](C(=O)N[C@@H](CCCCN)C(=O)O)C(C)C | 137 nM |
